Consider 5 compounds from patent publication US6028116A, “Substituted condensation products of 1H-indenyl-hydroxyalkanes with aldehydes for neoplasia” (Cell Pathways, Inc., priority 1998, dated 2000).

Like-named read-outs stand apart in the source and are kept apart here.

Data set [1] has as its system SW-480 colon adenocarcinoma cells. Briefly: Apoptosis, DNA fragmentation (Cell Death Detection ELISA plus). Format: cell-based, human. As to conditions: for EC50: SW-480, by data analysis software or estimated from effective concentration range. Here is the method:
(§1) Apoptosis was also measured based on the amount of fragmented DNA contained in cell lysates. Briefly, SW-480 colon adenocarcinoma cells were plated in 96-well microtitre plates ("MTP") at a density of 10K cells/well in 180 μl and were incubated for 24 hrs. Cells were then treated with 20 μl aliquots of appropriately diluted compound, and allowed to incubate for an additional 48 hrs.
After the incubation, samples were prepared according to the following steps. The MTP was centrifuged (15 min., 1000 rpm) and the supernatant was carefully removed by fast inversion of the MTP. The cell pellets in each well were resuspended in 200 μl lysis buffer and incubated for 45 min. at room temperature to lyse the cells. The lysates were then centrifuged (15 min., 1000 rpm) and 20 μl aliquots of the supernatant (=cytoplasmicfraction) were transferred into the streptavidin-coated MTP for analysis. Care was taken not to shake the lysed pellets in the MTP (=cell nucleii containing high molecular weight, unfragmented DNA). Samples were analyzed immediately, because storage at 4° C. or -20° C. reduces the ELISA-signals.
Samples were then processed according to a DNA fragmentation assay protocol, and dose-response curves were generated based on optical density readings. Quantification of DNA was done by a commercially available photometric enzyme-immunoassay manufactured by Mannheim-Boehringer under the name "Cell Death Detection ELISA ^plus ". The assay is based on a quantitative sandwich-enzyme-immunoassay-principle using mouse monoclonal antibodies directed against DNA and histones, respectively. This allows the specific determination of mono and oligonucleosomes in the cytoplasmatic fraction of cell lysates. In brief, the assay procedure is as follows. The sample (cell-lysate, serum, culture-supematant etc.) is placed into a streptavidin-coated MTP. Subsequently, a mixture of anti-histone-biotin and anti-DNA-POD is followed by incubation for 2 hours. During the incubation period, the anti-histone antibody binds to the histone-component of the nucleosomes and simultaneously fixes the immunocomplex to the streptavidin-coated MTP via its biotinylation. Additionally, the anti-DNA-POD antibody reacts with the DNA component of the nucleosomes. After removal of unbound antibodies by washing, the amount of nucleosomes is quantified by the POD retained in the immunocomplex. POD is determined photometrically with ABTS® (2,2'-Azino-di[3-ethylbenzthiazolin-sulfonate]) as substrate.
Fold stimulation (FS=ODmax/ODveh), an indicator of apoptotic response, was determined for each compound tested. EC50 values were determined either specifically by data analysis software, or by estimates based on the effective concentration range of each compound (ECR=min. effective dose-min. dose to peak effect). These FS and EC50 values for the tested compounds are listed above in Table 3.
(§2) In addition, using the DNA fragmentation test above, dose responses for the compounds of Example 8 and 9 were obtained.
Based on the data obtained from the DNA fragmentation tests in Tables 4 and 5, fold stimulations values for those compounds are also calculated at 100 μM by dividing the optical densities obtained at 100 μM by the optical densities of the control. Based on the data in Tables 4 and 5, fold stimulation values of 3.9 and 2.1 for the compounds of Examples 8 and 9 are obtained, accordingly.

For data set [2], the system named is human colon carcinoma cell line, SW-480. Briefly: Growth inhibition, Sulforhodamine B (SRB) protein binding assay. Format: cell-based. The note with it: for inhibition at 100 µM: SW480, 144 h, SW-480, six days. On the procedure:
The compounds of Examples #1, #8, and #9 were assayed for their growth inhibitory activity on the human colon carcinoma cell line, SW-480 obtained from ATCC (Rockville, Md.), to ascertain the degree of growth inhibition. Growth inhibition of this cell line is indicative of a benefit on precancerous lesions and neoplasms. The cell line and growth assay employed for such experiments are well characterized, and are used to evaluate the anti-neoplastic properties of compounds. The assay is used by the United States National Cancer Institute in its screening program for new anti-cancer drugs.
Drug stock solutions were made in 100% DMSO and were then diluted with RPMI media for cell culture testing. All drug solutions were prepared fresh on the day of testing. The cultured cells were obtained at passage #99 and grown in RPMI media supplemented with 5% fetal calf serum, and 2 mM glutamine, 100 U/ml penicillin, […] streptomycin, and 0.25 μg/ml amphotericin. The cultures were maintained in a humidified atmosphere of 95% air and 5% CO2 at 37° C. The cultures were passaged at preconfluent densities using a solution of 0.05% trypsin and 0.53 mM EDTA. Cells were plated at 1000 cells/well for 96 well flat-bottom microtiter plates.
Tumor cell growth inhibition was assessed using the Sulforhodamine B (SRB) protein binding assay. […] For each plate, 6 wells were designated as no treatment controls, six wells as vehicle (0.1% DMSO) controls, and the remaining wells for drug dilutions with three wells per drug. At the end of the exposure period, the cells were fixed and stained with sulforhodamine B, a protein binding dye. The dye was then solubilized, and the optical density of the resulting solution was determined on a 96-well plate reader. The mean dye intensity of the treated wells was then divided by the mean dye intensity in the control wells (6 wells of each) to determine the effect of the drug on the cells. Dye intensity is proportional to the number of cells or amount of protein per well. The resultant "percent inhibition" value then represents the degree of growth inhibition caused by the drug.
In addition, a dose response for growth inhibition was determined for the compound of Example 9, and an IC50 value was determined. This value is equivalent to the concentration of drug needed to inhibit tumor cell growth by 50%. […] Each experiment included at least three wells per drug concentration. Concentration was plotted on a log scale on the X-axis.

In data set [3] the target is T1, purified cyclooxygenase Type I (COX-I) (Ovis aries, UniProt P05979).
T1 construct: The COX-I was purified from ram seminal vesicles; from tissue; host or cells: ram seminal vesicles
T1 sequence (P05979 25-600): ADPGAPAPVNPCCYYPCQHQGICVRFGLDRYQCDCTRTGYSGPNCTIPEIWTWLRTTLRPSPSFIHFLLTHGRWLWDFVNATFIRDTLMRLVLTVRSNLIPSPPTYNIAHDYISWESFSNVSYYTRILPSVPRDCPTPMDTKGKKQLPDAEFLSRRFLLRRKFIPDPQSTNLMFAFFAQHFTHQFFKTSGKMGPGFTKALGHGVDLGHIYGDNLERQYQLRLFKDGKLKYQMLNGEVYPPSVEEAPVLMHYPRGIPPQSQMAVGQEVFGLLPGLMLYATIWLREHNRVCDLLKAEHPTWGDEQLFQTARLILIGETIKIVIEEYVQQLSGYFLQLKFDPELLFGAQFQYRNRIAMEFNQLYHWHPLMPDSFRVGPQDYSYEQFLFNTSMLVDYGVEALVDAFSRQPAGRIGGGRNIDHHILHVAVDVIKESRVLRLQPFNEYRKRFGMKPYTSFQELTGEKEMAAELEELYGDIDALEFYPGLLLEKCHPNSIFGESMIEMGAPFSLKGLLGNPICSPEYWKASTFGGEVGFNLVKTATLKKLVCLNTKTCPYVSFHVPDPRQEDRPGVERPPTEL
Briefly: Cyclooxygenase Type I (COX-I) inhibition. The note with it: arachidonic acid 100 μM, 2.0 min at 37° C. The class given is biochemical, ram. On the procedure: COX-I catalyzes the formation of prostaglandins and thromboxane by the oxidative metabolism of arachidonic acid.
Briefly, purified COX-I was incubated with arachidonic acid (100 μM) for 2.0 min at 37° C. in the presence or absence of test compounds. The assay was terminated by the addition of TCA, and COX-I activity was determined by absorbance at 530 nm.

Data set [4] concerns SW-480 colon adenocarcinoma cells. Briefly: Growth (% vehicle) in dose response of the DNA fragmentation test. The class given is cell-based. The note with it: Homo sapiens, SW480, 48 h. Here is the method:
as §1, §2

Data set [5] relates to HT-29 human colon carcinoma cells. Put plainly: Apoptosis, morphology of apoptotic cells by fluorescent microscopy (acridine orange / ethidium bromide). The class given is cell-based. On the procedure: Apoptosis was measured using an assay of cell death based on morphological characteristics of apoptotic cells (i.e., condensed chromatin). Drug preparation and cell culture conditions were the same as for the SRB assay described above, except that HT-29 human colon carcinoma cells were used. Confluent cultures were established in 12.5 cm^2 flasks by plating 0.5×10^6 cells/flask. The cultures were assayed for apoptosis by fluorescent microscopy following labeling with acridine orange and ethidium bromide. Floating and attached cells were collected by trypsinization and washed three times in PBS. One ml aliquots were centrifuged (3 g). The pellet was resuspended in 25 μl media and 1 μl of a dye mixture containing 100 μg/ml acridine orange and 100 μg/ml ethidium bromide prepared in PBS and mixed gently. Ten μl of the mixture were placed on a microscope slide and covered with a 22 mm^2 coverslip, which was examined with 40× dry objectives under epillumination by filter combination.
An observer blinded in regard to the identity of the samples scored at least 100 cells per sample. Apoptotic cells were identified by nuclear condensation of chromatin stained by the acridine orange or ethidium bromide.

For the next data set, the system named is colonic polyps. The note with it: cited from earlier work.
[6] abbreviates: Homo sapiens, SW480, 100 μM, FS=ODmax/ODveh, fold stimulation, SW-480, 48 hrs, read-out: DNA Fragmentation FS (100 μM).
[7] abbreviates: Homo sapiens, SW480, 48 h, 100 μM, OD at 100 μM divided by OD of control, read-out: fold stimulation calculated at 100 μM from Tables 4 and 5.

As a reminder, the inhibition is the change of the read-out against control, counted positive when it falls. As a reminder, the EC50 is the concentration that produces a half-maximal response. By IC50 is commonly meant the concentration that gives 50% inhibition.

On to `CSc1ccc(/C=C2/C(C)=C(CCO)c3cc(F)ccc32)cc1` [Example 1, (Z)-5-Fluoro-2-Methyl-1-(4-Methylthio-Benzylidene)-1H-3-Indenyl-(2-Hydroxy)Ethane], for which, in data set [1] (setting [6]), the fold induction at 100 µM stood at 4.9. In addition, the values for the inhibition at 100 µM in data set [2] and in data set [3] were 71% and 70%, respectively.

For `COc1cc(/C=C2/C(C)=C(CCO)c3cc(F)ccc32)cc(OC)c1OC` [Example 8, (Z)-5-Fluoro-2-Methyl-1-(3,4,5-Trimethoxybenzylidene)-1H-3-Indenyl-(2-Hydroxy)Ethane], the “Apoptosis Level (Mean OD Value ± SD)” value worked out at 0.252 ± 0.017 OD in data set [1] (0.001 μM); 0.272 ± 0.013 OD in data set [1] (0.01 μM); 0.277 ± 0.044 OD in data set [1] (0.1 μM); 0.304 ± 0.044 OD in data set [1] (1 μM); 0.355 ± 0.049 OD in data set [1] (10 μM); 0.974 ± 0.124 OD in data set [1] (100 μM). For the same compound, in data set [1] (500 μM), the “Apoptosis Level (Mean OD Value ± SD)” value was determined as 0.76 ± 0.113 OD. The fold induction at 100 µM was 3.9 in data set [1] (setting [7]) and 5.4 in data set [1] (setting [6]). Further, in data set [1] (Homo sapiens, SW480), the concentration for a half-maximal effect (EC50) is 20 µM. The inhibition at 100 µM in data set [2] amounted to 93%. The activity at 0.001 µM in data set [4] (0.001 μM) was determined as 101 ± 4.6%. Moreover, the activity at 0.01 µM in data set [4] was found to be 109 ± 9.2%. Also, in data set [4], the activity at 0.1 µM was found to be 105 ± 5.5%. Also, the activity at 1 µM in data set [4] came to 103 ± 6.6%. In data set [4], the activity at 10 µM amounted to 24 ± 16%. For the same compound, the activity at 100 µM in data set [4] was found to be 5 ± 0.6%. Moreover, the activity at 500 µM in data set [4] (500 μM) came to 9 ± 3.4%.

As to `CC1=C(CCO)c2cc(F)ccc2/C1=C\c1ccc(S(C)(=O)=O)cc1` [Example 9, (Z)-5-Fluoro-2-Methyl-1-(4-Methylsulfonylbenzylidene)-1H-3-Indenyl-(2-Hydroxy)Ethane], the “Apoptosis Level (Mean OD Value ± SD)” value in data set [1] (0.01 μM) is 0.272 ± 0.033 OD; in data set [1] (0.05 μM), 0.285 ± 0.03 OD; in data set [1] (0.1 μM) it was 0.312 ± 0.05 OD; in data set [1] (0.5 μM), 0.258 ± 0.03 OD; in data set [1] (1 μM), 0.296 ± 0.052 OD; in data set [1] (5 μM), 0.239 ± 0.024 OD. For the same compound, the figures for the “Apoptosis Level (Mean OD Value ± SD)” value in data set [1] (10 μM), in data set [1] (50 μM) and in data set [1] (100 μM) were 0.261 ± 0.022 OD, 0.259 ± 0.068 OD and 0.742 ± 0.095 OD, respectively. In addition, the fold induction at 100 µM in data set [1] (setting [7]) is 2.1; in data set [1] (setting [6]), 6.5. For the same compound, in data set [1] (Homo sapiens, SW480), the EC50 is 89.3 µM. For the same compound, the “Morphology % Apoptotic Cells 100 μM” value in data set [5] (100 μM) was determined as 98%. Besides, the inhibition at 100 µM in data set [2] is 84%; in data set [3] it was less than 25%. The compound further registered an IC50 in data set [2] (SW480, SW-480, obtained graphically from dose response) of 29.2 µM. The activity at 0.01 µM in data set [4] is 107 ± 7.4%. Further, the activity at 0.05 µM in data set [4] (0.05 μM) is 108 ± 9.6%. Besides, the activity at 0.1 µM in data set [4] was 111 ± 16.7%. In addition, the activity at 0.5 µM in data set [4] (0.5 μM) was determined as 114 ± 18.1%. Moreover, the activity at 1 µM in data set [4] turned out to be 106 ± 6.3%. In addition, in data set [4] (5 μM), the activity at 5 µM is 100 ± 8.3%. Also, the activity at 10 µM in data set [4] is 103 ± 9.3%. Further, the activity at 50 µM in data set [4] (50 μM) came out at 35 ± 0.246%. Moreover, the activity at 100 µM in data set [4] amounted to 21 ± 0.65%.

Take `CC1=C(CC(=O)O)c2cc(F)ccc2/C1=C\c1ccc(S(C)(=O)=O)cc1` [Exisulind, reference compound]: the fold induction at 700 µM in data set [1] (Homo sapiens, SW480, 700 μM, FS=ODmax/ODveh, fold stimulation, SW-480, 48 hrs) was found to be 3.4. In data set [1] (Homo sapiens, SW480), the EC50 was 425 µM. Moreover, the “Morphology % Apoptotic Cells (@540 μM)” value in data set [5] (540 μM) is recorded as 48%.

As to `CC1=C(CC(=O)O)c2cc(F)ccc2/C1=C\c1ccc([S+](C)[O-])cc1` (stereo not drawn) [sulindac], the gastric side effects result in the data set on colonic polyps (chronic administration, high cancer-risk patients) was “causes gastric side effects in many such patients”. In addition, the “effect on colonic polyps” value with colonic polyps (patients) is “Polyps virtually disappear”.
